{"source": "BindingDB's records for patent US10053463", "about": "(Janssen Pharmaceutica NV, 2018)"}
{"target": "T1, P2X purinoceptor 7 (Homo sapiens, UniProt Q99572)", "T1 sequence (Q99572 whole entry)": "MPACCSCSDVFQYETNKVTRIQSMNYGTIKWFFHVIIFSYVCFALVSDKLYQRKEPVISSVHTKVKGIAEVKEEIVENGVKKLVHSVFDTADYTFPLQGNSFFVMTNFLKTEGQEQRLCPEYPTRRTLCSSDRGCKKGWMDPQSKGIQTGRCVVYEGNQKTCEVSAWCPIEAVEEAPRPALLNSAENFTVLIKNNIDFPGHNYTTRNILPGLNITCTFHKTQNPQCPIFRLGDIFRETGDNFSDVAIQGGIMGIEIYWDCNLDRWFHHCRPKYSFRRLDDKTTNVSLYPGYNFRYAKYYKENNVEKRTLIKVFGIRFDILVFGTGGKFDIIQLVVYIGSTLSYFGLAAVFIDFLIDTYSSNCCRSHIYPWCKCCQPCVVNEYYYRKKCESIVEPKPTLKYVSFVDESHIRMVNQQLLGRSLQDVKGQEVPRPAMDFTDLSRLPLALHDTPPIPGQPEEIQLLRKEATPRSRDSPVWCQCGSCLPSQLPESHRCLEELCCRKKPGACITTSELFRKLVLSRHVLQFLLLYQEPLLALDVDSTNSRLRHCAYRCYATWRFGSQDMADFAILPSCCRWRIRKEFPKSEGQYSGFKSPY", "test": "P2X7 Radioligand Binding", "protocol": "human or rat P2X7-1321N1 cells were collected and frozen @−80° C. On the day of the experiment, cell membrane preparations were made according to standard published methods. […] The compound can be prepared as described in the literature. […] The assay was terminated by filtration (GF/B filters pre-soaked with 0.3% PEI) and washed with washing buffer (Tris-HCl 50 mM). The IC50 generated in the binding assay was corrected for tracer concentration and affinity of the tracer to derive at the affinity (K) of the test compounds. […] Data are analyzed and graphed on Graphpad Prism 5.", "units": {"Ki": "µM"}}
{"compound": "O=C1NCCn2c1nnc2-c1cnccn1", "note": "[US10053463, 1]", "Ki": 0.0631}
{"compound": "NNC(=O)c1ncccn1", "note": "[US10053463, 8]", "Ki": 0.02}
{"compound": "NNC(=O)c1ccncn1", "note": "[US10053463, 9]", "Ki": 0.01}
